Like-named read-outs stand apart in the source and are kept apart here.
Columns and labels:
[1] = system: L. major promastigotes WT; experiment: Alamar blue drug sensitivity assay, L. major WT; type: cell-based, Leishmania major; settings: Leishmania major, WT promastigotes, 72 h + 48 h with dye, n ≥ 4
Procedure: (§1) Sensitivity assays of Leishmania strains to various drugs using the viability dye resazurin (Alamar Blue) (Sigma-Aldrich) were performed using a protocol adapted from [Räz et al. (1997)], as described ([Al-Salabi et al., 2003], [Gould et al., 2008]). Pentamidine and diminazene were used as non-nucleoside controls and were obtained from Sigma-Aldrich, as were many purines, pyrimidines, and analogs, with the exceptions of 2-thiouridine and 4-thiouridine (TriLink BioTechnologies, San Diego, CA); 5′-deoxyuridine, and 2′-3′-dideoxyuridine (Carbosynth, Compton, UK); 5-fluoro-2′-deoxyuridine (Fluka); and 2-thiouracil (ICN Biomedicals, Cambridge, UK). A preliminary promastigote culture was diluted to a density of 2 × 10^6 cells/ml, of which 100 μl was added to wells of 96-well plates pre-loaded with 100 μl of doubling dilutions of test compounds, resulting in a final density of 1 × 10^6 cells/ml; the dilutions were over 2 rows of the plate (23 concentrations), with the last well containing only medium and serving as the no-drug control. The plates were incubated at 25 °C for 72 h before adding the Alamar Blue dye (20 μl of 12.5 mg resazurin sodium salt (Sigma) in 100 ml phosphate buffered saline (PBS; pH 7.4)). Since Leishmania parasites metabolize the Alamar Blue dye slower than trypanosomes ([Gould et al., 2008]), the cells were incubated with the dye for a further period of 48 h before measuring the fluorescence, using a FLUOstar Optima fluorimeter (BMG Labtech) at wavelengths of 544 nm for excitation and 620 nm for emission. […] Each experiment was performed independently at least 4 times; statistical significance was determined using Student's unpaired t-test.

[2] = molecular target: LmajNT1; experiment: [3H]-thymidine uptake by L. major promastigotes; type: cell-based, Leishmania major
Procedure: (§2) Using the standard uptake technique as described for T. brucei and Leishmania species ([Wallace et al., 2002], [Al-Salabi and De Koning, 2005], [Gudin et al., 2006]), the dose- or time-dependent uptake of radiolabeled permeants was investigated.
(§3) Briefly, cells in the mid-to-late logarithmic stage of growth were harvested by centrifugation for 10 min at 1500×g. The cells were washed twice with transport assay buffer (AB: 33 mM HEPES, 98 mM NaCl, 4.6 mM KCl, 0.55 mM CaCl2, 0.07 mM MgSO4, 5.8 mM NaH2PO4, 0.3 mM MgCl2, 23 mM NaHCO3, 14 mM glucose, pH 7.3), resuspended at a density of 10^8 cells ml^−1 in AB, and left for 20–30 min at room temperature to recover from centrifugation stress. One hundred microliters of cell suspension was incubated at ambient temperature for a predetermined time with 100 μl radiolabeled test compound, in the presence or absence of unlabeled substrate or other competitive inhibitors. The incubation was terminated by the addition of ice-cold stop solution (AB containing saturating levels, usually 10 mM, of unlabeled permeant) and centrifugation through oil for 1 min at 13,000 × g. […] Radioactivity was determined by liquid scintillation counting in a Beckman LS6000 TA scintillation counter. Saturation data, inhibition data, and time courses were plotted to equations for linear or non-linear regression (hyperbolic or sigmoid curves), as appropriate. All experiments were performed in triplicate and on at least three independent occasions.
Subsequent experiments were performed with a 5 min incubation time.

[3] = system: L. mexicana promastigotes WT; experiment: Alamar blue drug sensitivity assay, L. mexicana WT; type: cell-based, Leishmania mexicana; settings: Leishmania mexicana, 72 h, WT promastigotes, 72 h + 48 h with dye, n ≥ 4
Procedure: as §1

[4] = system: Lmex5F2′dURes; experiment: microbe, parasite or virus in culture; type: cell-based, Leishmania mexicana; settings: for EC50: Leishmania mexicana; for RF (Resistance Factor = IC50 (resistant clone)/IC50 (WT)): Lmex5F2′dURes vs L. mexicana WT
Procedure: as §1

[5] = system: Lmex5FURes; experiment: microbe, parasite or virus in culture; type: cell-based, Leishmania mexicana; settings: for EC50: Leishmania mexicana; for RF (Resistance Factor = IC50 (resistant clone)/IC50 (WT)): Lmex5FURes vs L. mexicana WT
Procedure: as §1

[6] = system: Lmaj5FURes; experiment: microbe, parasite or virus in culture; type: cell-based, Leishmania major; settings: for EC50: Leishmania major; for RF (Resistance Factor = IC50 (resistant clone)/IC50 (WT)): Lmaj5FURes vs L. major WT
Procedure: as §1

[7] = system: Lmaj5F2′dURes; experiment: microbe, parasite or virus in culture; type: cell-based, Leishmania major; settings: for EC50: Leishmania major; for RF (Resistance Factor = IC50 (resistant clone)/IC50 (WT)): Lmaj5F2′dURes vs L. major WT
Procedure: as §1

[8] = molecular target: LmexNT1; experiment: [3H]-adenosine uptake by L. mexicana promastigotes; type: cell-based, Leishmania mexicana; settings: inhibition of 0.05 μM [3H]-adenosine uptake; read-out: Ki
Source text: Using the standard uptake technique as described for T. brucei and Leishmania species ([Wallace et al., 2002], [Al-Salabi and De Koning, 2005], [Gudin et al., 2006]), the dose- or time-dependent uptake of radiolabeled permeants was investigated. The following radiolabels and specific activities were used: [^3H]-thymidine (Perkin Elmer; 56.6 Ci/mmol); [^3H]-adenosine (American Radiolabeled Chemicals UK; 40 Ci/mmol); [^3H]-uridine (American Radiolabeled Chemicals UK; 30 Ci/mmol); [^3H]-uracil (Perkin Elmer; 24.8 Ci/mmol); [^3H]-inosine (American Radiolabeled Chemicals UK; 20 Ci/mmol); [^3H]-5-fluorouracil (Moravek; 20 Ci/mmol).
as §3
We next investigated the transport of [^3H]-adenosine in L. mexicana promastigotes, which according to the efficient inhibition of [^3H]-thymidine by adenosine, should be taken up with high affinity.

[9] = molecular target: LmexNT1; type: cell-based, Leishmania mexicana
Procedure: as §2, §3
L. donovani is known to express one pyrimidine nucleoside transporter, LdNT1, which also transports adenosine ([Vasudevan et al., 1998], [De Koning et al., 2005]). In order to investigate whether this model held true for L. mexicana, the uptake of [^3H]-thymidine was studied. […] Care was taken throughout this study that whenever inhibition constants (Ki) or Michaelis-Menten constants (Km) were determined the conditions used had been verified to be well within the linear range of uptake.

[10] = molecular target: LmexNT1; type: cell-based, Leishmania mexicana; remark: listed apart in the source
Procedure: as §2, §3

[11] = molecular target: LmexUU1; type: cell-based, Leishmania mexicana
Procedure: as §2, §3

[12] = inhibition of 0.25 μM [3H]-thymidine uptake (total LmajNT1.1 + LmajNT1.2), 5 min
[13] = inhibition of [3H]-uracil uptake, 4 min

Structure (SMILES): O=c1ccn([C@@H]2O[C@H](CO)[C@@H](O)[C@H]2O)c(=S)[nH]1 [2-thiouridine]
- EC50 ([1]; 72 h): > 5000 µM
- Ki [2]: 765 ± 68 µM
- EC50 [3]: > 5000 µM

Structure (SMILES): O=c1ccn([C@H]2CC[C@@H](CO)O2)c(=O)[nH]1 [2′,3′-dideoxyuridine]
- EC50 ([1]; 72 h): > 5000 µM
- Ki [2]: > 2500 µM
- EC50 [3]: > 5000 µM

Structure (SMILES): O=C1C=CN([C@@H]2O[C@H](CO)[C@@H](O)[C@H]2O)C(=O)C1 [3-deazauridine]
- Ki [2, 12]: 3670 ± 420 µM

Structure (SMILES): Cc1cn([C@H]2CC[C@@H](CO)O2)c(=O)[nH]c1=O [3′-deoxythymidine]
- Ki [2, 12]: 1250 ± 44.5 µM

Structure (SMILES): O=c1ccn([C@@H]2O[C@H](CO)C[C@H]2O)c(=O)[nH]1 [3′-deoxyuridine]
- EC50 ([1]; 72 h): > 5000 µM
- EC50 [3]: > 5000 µM

Structure (SMILES): O=c1[nH]c(=S)ccn1[C@@H]1O[C@H](CO)[C@@H](O)[C@H]1O [4-thiouridine]
- EC50 ([1]; 72 h): > 5000 µM
- Ki [2, 12]: 69 ± 18.1 µM
- EC50 [3]: > 5000 µM

Structure (SMILES): O=c1[nH]c(=O)n([C@H]2C[C@H](O)[C@@H](CO)O2)cc1Br [5-bromo-2′-deoxyuridine]
- EC50 ([1]; 72 h): > 5000 µM
- EC50 [3]: > 5000 µM

Structure (SMILES): O=c1[nH]cc(Br)c(=O)[nH]1 [5-bromouracil]
- EC50 ([1]; 72 h): > 5000 µM
- EC50 [3]: > 5000 µM

Structure (SMILES): O=c1[nH]c(=O)n([C@@H]2O[C@H](CO)[C@@H](O)[C@H]2O)cc1Br [5-bromouridine]
- EC50 ([1]; 72 h): > 5000 µM
- EC50 [3]: > 5000 µM

Structure (SMILES): O=c1[nH]c(=O)n([C@H]2C[C@H](O)[C@@H](CO)O2)cc1Cl [5-chloro-2′-deoxyuridine]
- EC50 ([1]; 72 h): > 5000 µM
- EC50 [3]: > 5000 µM

Structure (SMILES): O=c1[nH]c(=O)n([C@@H]2O[C@H](CO)[C@@H](O)[C@H]2O)cc1Cl [5-chlorouridine]
- EC50 ([1]; 72 h): > 5000 µM
- EC50 [3]: > 5000 µM

Structure (SMILES): C[C@H]1O[C@@H](n2cc(F)c(=O)[nH]c2=O)[C@H](O)[C@@H]1O [5-fluoro,5′-deoxyuridine]
- Ki [2, 12]: 168 ± 32 µM

Structure (SMILES): Nc1nc(=O)n([C@@H]2O[C@H](CO)[C@@H](O)[C@H]2O)cc1F [5-fluorocytidine]
- EC50 ([1]; 72 h): > 5000 µM
- EC50 [3]: > 5000 µM

Structure (SMILES): Nc1nc(=O)[nH]cc1F [5-fluorocytosine]
- EC50 ([1]; 72 h): > 5000 µM
- EC50 [3]: > 5000 µM

Structure (SMILES): O=c1[nH]c(=O)n([C@H]2C[C@H](O)[C@@H](CO)O2)cc1I [5-iodo-2′-deoxyuridine]
- EC50 ([1]; 72 h): > 5000 µM
- EC50 [3]: > 5000 µM

Structure (SMILES): O=c1[nH]c(=O)n([C@@H]2O[C@H](CO)[C@@H](O)[C@H]2O)cc1I [5-iodouridine]
- EC50 ([1]; 72 h): > 5000 µM
- EC50 [3]: > 5000 µM

Structure (SMILES): Nc1nc(=O)n([C@H]2C[C@H](O)[C@@H](CO)O2)cc1F [5F-2′dCtd, 5-Fluoro-2′-deoxycytidine]
- EC50 [4]: > 5000 µM
- RF (Resistance Factor = IC50 (resistant clone)/IC50 (WT)) [4]: >290
- EC50 [5]: 24 ± 0.9 µM
- RF (Resistance Factor = IC50 (resistant clone)/IC50 (WT)) [5]: 1.4
- EC50 ([1]; read-out: EC50): 38 ± 1.7 µM
- EC50 [6]: 17 ± 1.8 µM
- RF (Resistance Factor = IC50 (resistant clone)/IC50 (WT)) [6]: 0.4
- EC50 [7]: 3870 ± 621 µM
- RF (Resistance Factor = IC50 (resistant clone)/IC50 (WT)) [7]: 101
- EC50 ([3]; read-out: EC50): 17.3 ± 1.8 µM

Structure (SMILES): O=c1ccn([C@@H]2O[C@H](CF)[C@@H](O)[C@H]2O)c(=O)[nH]1 [5′-deoxy-5′-fluorouridine]
- EC50 ([1]; 72 h): > 5000 µM
- EC50 [3]: > 5000 µM

Structure (SMILES): C[C@H]1O[C@@H](n2ccc(=O)[nH]c2=O)[C@H](O)[C@@H]1O [5′dUrd, 5′-deoxyuridine]
- EC50 ([1]; read-out: EC50): 525 ± 46 µM
- EC50 ([3]; read-out: EC50): 461 ± 80 µM

Structure (SMILES): O=c1cn[nH]c(=O)[nH]1 [6-azauracil]
- EC50 ([1]; 72 h): > 5000 µM
- EC50 [3]: > 5000 µM

Structure (SMILES): Nc1ccn([C@@H]2O[C@H](CO)[C@@H](O)[C@H]2O)c(=O)n1 [cytidine]
- Ki [8]: 149 ± 18 µM
- Ki ([9]; inhibition of 1 μM [3H]-thymidine uptake, 20 s): 82 ± 5 µM
- Ki ([10]; inhibition of 0.25 μM [3H]-uridine uptake in the presence of 1 mM uracil): 78.6 ± 15.1 µM
- Ki [2, 12]: 1150 ± 108 µM

Structure (SMILES): Nc1cc[nH]c(=O)n1 [cytosine]
- Ki [11, 13]: > 5000 µM

Structure (SMILES): N=C(N)c1ccc(/N=N/Nc2ccc(C(=N)N)cc2)cc1 [diminazene]
- EC50 [4]: 13.9 ± 1.9 µM
- RF (Resistance Factor = IC50 (resistant clone)/IC50 (WT)) [4]: 1.8
- EC50 [5]: 7.2 ± 1.4 µM
- RF (Resistance Factor = IC50 (resistant clone)/IC50 (WT)) [5]: 0.97
- EC50 ([1]; read-out: EC50): 9.8 ± 0.3 µM
- EC50 [6]: 10 ± 1.6 µM
- RF (Resistance Factor = IC50 (resistant clone)/IC50 (WT)) [6]: 1.02
- EC50 [7]: 24.6 ± 1.5 µM
- RF (Resistance Factor = IC50 (resistant clone)/IC50 (WT)) [7]: 2.5
- EC50 ([3]; read-out: EC50): 7.4 ± 0.3 µM

Structure (SMILES): O=c1[nH]cnc2nc[nH]c12 [hypoxanthine]
- Ki [9]: > 1000 µM
- Ki [10]: > 1000 µM
- Ki [11]: > 500 µM

Structure (SMILES): N=C(N)c1ccc(OCCCCCOc2ccc(C(=N)N)cc2)cc1 [pentamidine]
- EC50 [5]: 5 ± 0.6 µM
- RF (Resistance Factor = IC50 (resistant clone)/IC50 (WT)) [5]: 1.1
- EC50 ([1]; read-out: EC50): 3.3 ± 0.2 µM
- EC50 ([3]; read-out: EC50): 4.6 ± 0.2 µM

Structure (SMILES): Cc1c[nH]c(=O)[nH]c1=O [thymine]
- Ki [11, 13]: 560 ± 190 µM
- Ki [2, 12]: > 1000 µM
